Experimental data published in the Biogen ADME set (Fang et al. 2023).
In brackets after ≈: the same amount, converted by molar mass.

Settings: for aqueous solubility: pH 6.8

SMILES | MDR1-MDCK efflux ratio | intrinsic clearance, human liver microsomes [L/h/kg] | intrinsic clearance, rat liver microsomes [L/h/kg] | aqueous solubility [mg/mL] | fraction unbound, human plasma | fraction unbound, rat plasma
CC(C)(C)OC(=O)NCCCC(=O)N[C@H]1C[C@@H](n2cnc3c(NCc4ccccc4)ncnc32)[C@@H](O)[C@H]1O | 4.62 | 6.62 | 9.58 | – | – | –
Cc1n[nH]c(C)c1CCC(=O)N1CCOCC1 | 13.5 | ≤ 0.284 | ≤ 0.64 | 0.0256 (≈ 108 µM) | – | –
COc1cc(CN[C@@H]2CCC[C@H]2Cc2cc(C)no2)ccc1OC(C)C | – | 4.01 | 143 | – | – | –
N#Cc1cc(F)c(N2CCN(CCO)CC2)c(F)c1 | 0.524 | ≤ 0.284 | ≤ 0.64 | 0.0413 (≈ 154 µM) | – | –
COC(=O)N1CC(NCc2c(C)nn(C(C)(C)C)c2C)C1 | 1.79 | ≤ 0.284 | 3.67 | – | – | –
Cc1n[nH]c(C2CCN(C(=O)NC3CCN(c4ccc(F)cc4)CC3)CC2)n1 | 22.9 | ≤ 0.284 | 2.3 | – | – | –
CN1CCCN(c2nc(C(F)(F)F)nc3cc4c(cc23)OCO4)CC1 | 1.11 | 1.34 | 12.5 | 0.0433 (≈ 122 µM) | – | –
CCCCCCCCc1ccc(CC[C@](N)(CO)COP(=O)(O)O)cc1 | – | 0.457 | – | – | – | –
Cc1[nH]nc2c1C1(CCCCC1)CC(=O)N2 | 3.36 | 0.507 | 2.74 | – | 0.21 | 0.193
CC(C)(C)C(=O)N1CCC(CN(CC(N)=O)C2CCCC2)CC1 | 26.6 | 1.79 | 84.4 | – | – | –
Cc1nc2ncc3c(n2n1)CCCC3=O | 0.752 | ≤ 0.284 | ≤ 0.64 | – | – | –
CCCN(CCC1=CCCCC1)C(=O)c1cc(C(F)F)n[nH]1 | 0.395 | 3.96 | 119 | – | – | –
CC(C)c1ccc(CN2CCN(C(=O)C3CCN(C(=O)C4CC4)CC3)CC2)cc1 | 2.65 | 1.92 | 22.7 | – | – | –
O=C(c1cccc2ccccc12)N1CCCC(C(=O)N2CCc3ccccc3C2)C1 (stereo unspecified) | 5.83 | 41.7 | 268 | 0.0564 (≈ 142 µM) | – | –
CS(=O)(=O)NCc1cc2n(n1)CCN(C1Cc3ccccc3C1)C2 | 2.92 | ≤ 0.284 | 1.66 | – | – | –
CCNC(=O)c1ccc(CS(C)(=O)=O)cc1 | 2.62 | ≤ 0.284 | 1.24 | 0.0409 (≈ 169 µM) | – | –

The next lines start with the values.

MDR1-MDCK efflux ratio | intrinsic clearance, human liver microsomes [L/h/kg] | intrinsic clearance, rat liver microsomes [L/h/kg] | aqueous solubility [mg/mL] | fraction unbound, human plasma | fraction unbound, rat plasma | SMILES
0.822 | 3.78 | 40.2 | 0.0267 (≈ 70.1 µM) | – | – | Cn1ccc(C(=O)N2CCCC(c3cccc(-c4cccc(Cl)c4)n3)C2)n1 (stereo unspecified)
8.43 | 4.16 | 30.9 | 0.0675 (≈ 146 µM) | – | – | CCN(CC)Cc1cccc(/C=C/c2nc3ccc(F)cc3c(=O)n2-c2ccccc2Cl)n1
– | 7.74 | 29 | 0.0101 (≈ 37.5 µM) | – | – | COc1ccc2c(c1)CN(c1nc(C)cc(C)n1)CC2
67.7 | 13.7 | 47.8 | 0.0458 (≈ 102 µM) | 0.048 | – | CC(=O)NCCNc1cc(Cl)nn2c(-c3cccc(S(=O)(=O)N(C)C)c3)c(C)nc12
0.485 | 2.17 | 15.6 | 0.0349 (≈ 110 µM) | – | – | CCc1ncc2c(n1)CN(c1ccnc(-c3ccccc3)n1)CC2
49.3 | 0.601 | 6.86 | – | – | – | CC(=O)Nc1ccccc1CN1CCC(c2nnc3ccccn23)CC1
– | 4.9 | 49.2 | 0.0395 (≈ 111 µM) | – | – | COc1cc(CCNC(=O)c2nc3cccc(C)n3c2F)cc(OC)c1
30.1 | 1.1 | 7.15 | 0.0202 (≈ 48.5 µM) | – | – | Cc1ccc2c(c1)C(=O)CC1(CCN(C(=O)c3ccc4nc(C)cc(O)c4c3)CC1)O2
14.5 | ≤ 0.284 | 2.06 | – | – | – | C[C@H]1Oc2cc(cnc2N)-c2c(nn(C)c2C#N)CN(C)C(=O)c2ccc(F)cc21
1.08 | 1.74 | 4.5 | 0.00873 (≈ 25.1 µM) | – | – | Cc1cc(C(=O)Nc2cccc(-c3cnco3)c2)c2c(C)nn(C)c2n1
2.2 | – | – | 0.00045 (≈ 1.06 µM) | – | – | CCC(C)(C)c1ccc(Oc2ccc(NC(=O)CSc3cccc[n+]3[O-])cc2)cc1
